Experimental findings from US12180146B2, “Antihypertensive polyol compound and derivative thereof” (TAO PHARMACEUTICAL (SUZHOU) CO., LTD, priority 2020, dated 2024) are described below.

Structures can show the parent of a compound that is named as a salt.

The subject of the assay is spontaneously hypertensive rats (SHR). Kind of assay: Antihypertensive activity test: blood pressure and heart rate of spontaneously hypertensive rats (SHR). As to conditions: 200 mg/kg. The format is in vivo, rat. The gist of the method: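 Spontaneously hypertensive rats received compound at 200 mg/kg. SBP and heart rate were measured before and after dosing. A drop in SBP of ≥20 mmHg from baseline counted as effective, and heart-rate changes were tested by paired t-test (P<0.05).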

The mark [1] stands for this setting: after administration (6 h M ± SD), n = 8.
[2] abbreviates: before administration, M ± SD, n = 8.

Turning to `CCc1cccc(C(O)COC(=O)[C@@H](C)N)c1` (some centres unmarked) [Compound 22], under “1 h”, the “SBP Difference before and after administration, 1 h” value is reported as 11 mmHg. For the same compound, the “SHR blood pressure (SBP), time after administration 1 h” value (1 h, n = 8) is 187 ± 6.39 mmHg. The “SBP Difference before and after administration, 2 h” value (2 h) was found to be 14 mmHg. In addition, the “SHR blood pressure (SBP), time after administration 2 h” value (2 h, n = 8) is 184 ± 4.69 mmHg. The “SBP Difference before and after administration, 3 h” value (3 h) is listed as 26 mmHg. For the same compound, the “SHR blood pressure (SBP), time after administration 3 h” value (3 h, n = 8) is recorded as 171 ± 12.14 mmHg. Besides, the “SBP Difference before and after administration, 4 h” value (4 h) was 25 mmHg. The “SHR blood pressure (SBP), time after administration 4 h” value (4 h, n = 8) stood at 173 ± 13.7 mmHg. Further, the “SBP Difference before and after administration, 5 h” value (5 h) stood at 24 mmHg. Also, the “SHR blood pressure (SBP), time after administration 5 h” value (5 h, n = 8) is 174 ± 15.9 mmHg. Also, the “SBP Difference before and after administration, 6 h” value (6 h) is listed as 20 mmHg. Further, the “SHR blood pressure (SBP), time after administration 6 h” value (6 h, n = 8) came to 178 ± 8.78 mmHg.
On to `CCc1cccc(C(CO)OC(=O)CN)c1` (centres unmarked) [Compound 23], for which the “SBP Difference before and after administration, 1 h” value (1 h) is given as 10 mmHg. Also, for the setting “1 h, n = 8”, the “SHR blood pressure (SBP), time after administration 1 h” value worked out at 186 ± 6.39 mmHg. Besides, the “SBP Difference before and after administration, 2 h” value (2 h) turned out to be 9 mmHg. The “SHR blood pressure (SBP), time after administration 2 h” value (2 h, n = 8) is 187 ± 4.66 mmHg. Besides, the “SBP Difference before and after administration, 3 h” value (3 h) was determined as 15 mmHg. The “SHR blood pressure (SBP), time after administration 3 h” value (3 h, n = 8) was determined as 181 ± 9.15 mmHg. In addition, the “SBP Difference before and after administration, 4 h” value (4 h) turned out to be 13 mmHg. Further, the “SHR blood pressure (SBP), time after administration 4 h” value (4 h, n = 8) is reported as 183 ± 13.7 mmHg. The “SBP Difference before and after administration, 5 h” value (5 h) stood at 18 mmHg. For the same compound, the “SHR blood pressure (SBP), time after administration 5 h” value (5 h, n = 8) was 178 ± 15.9 mmHg. Moreover, the “SBP Difference before and after administration, 6 h” value (6 h) is recorded as 18 mmHg. Further, the “SHR blood pressure (SBP), time after administration 6 h” value (6 h, n = 8) was 178 ± 8.78 mmHg.
On to `COc1cc(C(O)CO)ccc1O` (centres unmarked) [Compound 25], for which the “SBP Difference before and after administration, 1 h” value (1 h) was 8 mmHg. In addition, where the note is “1 h, n = 8”, the “SHR blood pressure (SBP), time after administration 1 h” value is 191 ± 6.64 mmHg. Further, the “SBP Difference before and after administration, 2 h” value (2 h) worked out at 10 mmHg. Also, the “SHR blood pressure (SBP), time after administration 2 h” value (2 h, n = 8) was found to be 189 ± 7.77 mmHg. Besides, the “SBP Difference before and after administration, 3 h” value (3 h) worked out at 11 mmHg. Moreover, the “SHR blood pressure (SBP), time after administration 3 h” value (3 h, n = 8) is recorded as 186 ± 8.18 mmHg. Also, under “4 h”, the “SBP Difference before and after administration, 4 h” value came out at 15 mmHg. The “SHR blood pressure (SBP), time after administration 4 h” value (4 h, n = 8) is 184 ± 4.56 mmHg. For the setting “5 h”, the “SBP Difference before and after administration, 5 h” value is reported as 12 mmHg. Also, under “5 h, n = 8”, the “SHR blood pressure (SBP), time after administration 5 h” value turned out to be 187 ± 14.2 mmHg. For the setting “6 h”, the “SBP Difference before and after administration, 6 h” value stood at 11 mmHg. Further, the “SHR blood pressure (SBP), time after administration 6 h” value (6 h, n = 8) was found to be 188 ± 5.55 mmHg.
As for `COCCc1ccc(OCC(O)CNC(C)C)cc1` (centres unmarked) [Metoprolol Hydrochloride, reference compound], the “effect on heart rate while lowering blood pressure” value is listed as “significantly slow down the heart rate” and the “time after administration of lowest value of blood pressure” value was 3 h. In addition, the “SHR heart rate, time after administration 0 h” value (0 h, N = 8) is on record as 328 ± 24.5 beat/min. Under “1 h”, the “Heart rate Difference before and after administration, 1 h” value was −44 beat/min; the “SBP Difference before and after administration, 1 h” value was found to be 20 mmHg. In addition, the “SHR heart rate, time after administration 1 h” value (1 h, N = 8) was determined as 283 ± 24.4 beat/min. For the same compound, the “SHR blood pressure (SBP), time after administration 1 h” value (1 h, n = 8) turned out to be 166 ± 6.39 mmHg. In addition, under “2 h”, the “Heart rate Difference before and after administration, 2 h” value is reported as −45 beat/min; the “SBP Difference before and after administration, 2 h” value was found to be 22 mmHg. The “SHR heart rate, time after administration 2 h” value (2 h, N = 8) worked out at 283 ± 23.1 beat/min. In addition, the “SHR blood pressure (SBP), time after administration 2 h” value (2 h, n = 8) was 164 ± 4.50 mmHg. Besides, where the note is “3 h”, the “Heart rate Difference before and after administration, 3 h” value is −49 beat/min; the “SBP Difference before and after administration, 3 h” value was found to be 25 mmHg. The “SHR heart rate, time after administration 3 h” value (3 h, N = 8) is listed as 279 ± 22.3 beat/min. Further, the “SHR blood pressure (SBP), time after administration 3 h” value (3 h, n = 8) was 161 ± 9.15 mmHg. Under “4 h”, the “Heart rate Difference before and after administration, 4 h” value is given as −48 beat/min; the “SBP Difference before and after administration, 4 h” value was determined as 24 mmHg. Also, the “SHR heart rate, time after administration 4 h” value (4 h, N = 8) is 280 ± 23.0 beat/min. Besides, for the setting “4 h, n = 8”, the “SHR blood pressure (SBP), time after administration 4 h” value is given as 163 ± 13.7 mmHg. Also, under “5 h”, the “Heart rate Difference before and after administration, 5 h” value is −43 beat/min; the “SBP Difference before and after administration, 5 h” value is given as 23 mmHg. In addition, for the setting “5 h, N = 8”, the “SHR heart rate, time after administration 5 h” value was determined as 285 ± 24.0 beat/min. For the setting “5 h, n = 8”, the “SHR blood pressure (SBP), time after administration 5 h” value is on record as 164 ± 15.9 mmHg. Where the note is “6 h”, the “Heart rate Difference before and after administration, 6 h” value is on record as −40 beat/min; the “SBP Difference before and after administration, 6 h” value is 18 mmHg. For the setting “6 h, N = 8”, the “SHR heart rate, time after administration 6 h” value is 288 ± 28.5 beat/min. For the same compound, the “SHR blood pressure (SBP), time after administration 6 h” value (6 h, n = 8) amounted to 168 ± 8.78 mmHg. Also, for the setting “6 hours after administration”, the “average heart rate slowed by” value came out at 46 beats/min. Besides, under setting [1], the “Blood pressure (SBP, mmHg) After administration” value worked out at 164 ± 7.85 mmHg and the “Heart rate (beat/min) After administration” value came to 282 ± 21.3 beat/min. The “Heart rate Difference (beat/min)” value (after administration minus baseline (6 h)) was −46 beat/min. Where the note is “at most recorded time points”, the “blood pressure reduction after administration” value is listed as “more than 20 mmHg”. Also, the “Blood pressure Difference mmHg” value (baseline minus after administration (6 h)) is 23 mmHg. Under setting [2], the “Blood pressure (SBP, mmHg) Baseline” value was 186 ± 7.87 mmHg and the “Heart rate (beat/min) Baseline” value was determined as 328 ± 24.5 beat/min.
